Data on two compounds can be found in ChEMBL document CHEMBL6103654, “Design, Biological Characterization, and Discovery of Capromorelin Derivatives as Oral Growth Hormone Secretagogue Receptor Type 1a Agonist for the Treatment of Growth Hormone Deficiency” (J Med Chem, 2025).

In data set [1] the test system is Rattus norvegicus. Description: Induction of growth hormone level in Juvenile Sprague-Dawley rat blood at 10 mg/kg, po administered as single dose measured after 1 hr by ELISA method (reference value: 45.2+/-12.5 ng/mL). It counts as functional. For orientation: In an ELISA, binding on a coated surface is turned into a signal by an enzyme label.
Data set [2] concerns Rattus norvegicus. Description: Induction of growth hormone level in Juvenile Sprague-Dawley rat blood at 10 mg/kg, po administered as single dose measured after 40 mins by ELISA method (reference value: 40.1+/-11.0 ng/mL). It counts as functional.
The subject of data set [3] is Rattus norvegicus. The data set can be described thus: Induction of growth hormone level in adult Sprague-Dawley rat blood by measuring AUC(0 to 40 mins) at 10 mg/kg, po administered as single dose by ELISA method (reference value: 7.0+/-1.7 ng/mL). It counts as functional, organism-based.
The test system of data set [4] is Rattus norvegicus. The data set can be described thus: Induction of growth hormone level in Juvenile Sprague-Dawley rat blood at 10 mg/kg, po administered as single dose measured after 2 hrs by ELISA method (reference value: 26.5+/-7.3 ng/mL). It is filed as functional.
For data set [5], the system named is Rattus norvegicus. The data set can be described thus: Induction of growth hormone level in Juvenile Sprague-Dawley rat blood at 10 mg/kg, po administered as single dose measured after 4 hrs by ELISA method (reference value: 32.5+/-4.5 ng/mL). It is filed as functional.
The subject of data set [6] is Rattus norvegicus. The data set can be described thus: Induction of growth hormone level in Juvenile Sprague-Dawley rat blood at 10 mg/kg, po administered as single dose measured after 10 mins by ELISA method (reference value: 23.2+/-5.6 ng/mL). It counts as functional.
Data set [7] has as its system Rattus norvegicus. Description: Induction of growth hormone level in adult Sprague-Dawley rat blood at 10 mg/kg, po administered as single dose measured after 40 mins by ELISA method (reference value: 14.4+/-6.9 ng/mL). It is filed as functional.
Data set [8] has as its system Rattus norvegicus. Description: Induction of growth hormone level in adult Sprague-Dawley rat blood at 10 mg/kg, po administered as single dose measured immediately by ELISA method (reference value: 12.6+/-4.4 ng/mL). It is filed as functional.
For data set [9], the system named is Rattus norvegicus. The data set can be described thus: Induction of growth hormone level in adult Sprague-Dawley rat blood at 10 mg/kg, po administered as single dose measured after 20 mins by ELISA method (reference value: 4.9+/-1.1 ng/mL). It counts as functional.
The test system of data set [10] is Rattus norvegicus. Description: Induction of growth hormone level in adult Sprague-Dawley rat blood at 10 mg/kg, po administered as single dose measured after 10 mins by ELISA method (reference value: 13.7+/-7.2 ng/mL). It counts as functional.
Data set [11] concerns Rattus norvegicus. The data set can be described thus: Induction of growth hormone level in Juvenile Sprague-Dawley rat blood at 10 mg/kg, po administered as single dose measured immediately by ELISA method (reference value: 28.5+/-8.7 ng/mL). It counts as functional.
In data set [12] the test system is Rattus norvegicus. Description: Induction of growth hormone level in Juvenile Sprague-Dawley rat blood at 10 mg/kg, po administered as single dose measured after 20 mins by ELISA method (reference value: 29.1+/-8.6 ng/mL). It is filed as functional.
Data set [13] has as its system Rattus norvegicus. The data set can be described thus: Induction of growth hormone level in Juvenile Sprague-Dawley rat blood by measuring AUC(0 to 40 mins) at 10 mg/kg, po administered as single dose by ELISA method (reference value: 20.2+/-4.3 ng/mL). It is filed as functional, organism-based.
Data set [14] is described as follows: Agonist activity at human GHSR expressed in CHO cells incubated for 60 min by FLIPR assay. It is filed as cell-based. The note with it: 1 h.
The test system of data set [15] is Rattus norvegicus. Description: Induction of growth hormone level in Juvenile Sprague-Dawley rat blood at 0.1 mg/kg, po administered as single dose measured after 20 mins by ELISA method (reference value: 29.1+/-8.6 ng/mL). It is filed as functional.
Data set [16] concerns Rattus norvegicus. The data set can be described thus: Induction of growth hormone level in Juvenile Sprague-Dawley rat blood at 0.1 mg/kg, po administered as single dose measured after 1 hr by ELISA method (reference value: 45.2+/-12.5 ng/mL). It is filed as functional.
In data set [17] the test system is CHO. The data set can be described thus: Agonist activity at human GHSR expressed in CHO cells at maximum concentration incubated for 60 min by FLIPR assay relative to control. It counts as cell-based. The note with it: filed as agonist.
Data set [18] has as its system Rattus norvegicus. The data set can be described thus: Induction of growth hormone level in Juvenile Sprague-Dawley rat blood at 0.1 mg/kg, po administered as single dose measured immediately by ELISA method (reference value: 28.5+/-8.7 ng/mL). It counts as functional.
Data set [19] in a line: Volume of distribution in male Sprague-Dawley rat at 1 mg/kg, iv administered as single dose measured after 4 hrs. The note with it: in vivo. It is filed as ADME, organism-based.
Data set [20] concerns CHO. The data set can be described thus: Agonist activity at monkey GHSR expressed in CHO cells at maximum concentration incubated for 60 min by FLIPR assay relative to control. It is filed as cell-based. As to conditions: Macaca mulatta, filed as agonist.
Data set [21] can be described thus: Tmax in male Sprague-Dawley rat at 2 mg/kg, po administered as single dose measured after 4 hrs. It counts as ADME, organism-based. As to conditions: in vivo.
The nature of data set [22]: AUC in male Sprague-Dawley rat at 2 mg/kg, po administered as single dose measured after 4 hrs. It is filed as ADME, organism-based. The note with it: in vivo.
Data set [23] is described as follows: Agonist activity at dog GHSR expressed in CHO cells incubated for 60 min by FLIPR assay. It counts as cell-based. As to conditions: 1 h.
Data set [24] relates to Rattus norvegicus. Description: Induction of growth hormone level in Juvenile Sprague-Dawley rat blood at 0.1 mg/kg, po administered as single dose measured after 40 mins by ELISA method (reference value: 40.1+/-11.0 ng/mL). It counts as functional.
A short description of data set [25]: Oral bioavailability in male Sprague-Dawley rat at 2 mg/kg administered as single dose measured after 4 hrs. It is filed as ADME, organism-based. As to conditions: in vivo.
Data set [26] in a line: Elimination half life in male Sprague-Dawley rat at 2 mg/kg, po administered as single dose measured after 4 hrs. It counts as ADME, organism-based. The note with it: in vivo, read-out: beta t1/2 (converted).
Data set [27] deals with Rattus norvegicus. Description: Induction of growth hormone level in adult Sprague-Dawley rat blood at 0.5 mg/kg, po administered as single dose measured after 40 mins by ELISA method (reference value: 14.4+/-6.9 ng/mL). It counts as functional.
For data set [28], the system named is Rattus norvegicus. Description: Induction of growth hormone level in Juvenile Sprague-Dawley rat blood at 0.1 mg/kg, po administered as single dose measured after 4 hrs by ELISA method (reference value: 32.5+/-4.5 ng/mL). It is filed as functional.
The nature of data set [29]: Elimination half life in male Sprague-Dawley rat at 1 mg/kg, iv administered as single dose measured after 4 hrs. It is filed as ADME, organism-based. The note with it: in vivo, read-out: beta t1/2 (converted).
Data set [30] can be described thus: Cmax in male Sprague-Dawley rat at 2 mg/kg, po administered as single dose measured after 4 hrs. It counts as ADME, organism-based. The note with it: in vivo.
Data set [31] deals with Rattus norvegicus. Description: Induction of growth hormone level in adult Sprague-Dawley rat blood by measuring AUC(0 to 40 mins) at 0.5 mg/kg, po administered as single dose by ELISA method (reference value: 7.0+/-1.7 ng/mL). It counts as functional, organism-based.
Data set [32] concerns the target Growth hormone secretagogue receptor type 1 (Rattus norvegicus) (UniProt O08725). Description: Agonist activity at rat GHSR expressed in CHO cells at maximum concentration incubated for 60 min by FLIPR assay relative to control. The note with it: filed as agonist. It is filed as functional, cell-based.
The test system of data set [33] is Rattus norvegicus. The data set can be described thus: Induction of growth hormone level in Juvenile Sprague-Dawley rat blood at 0.1 mg/kg, po administered as single dose measured after 10 mins by ELISA method (reference value: 23.2+/-5.6 ng/mL). It is filed as functional.
Data set [34] relates to Rattus norvegicus. Description: Induction of growth hormone level in adult Sprague-Dawley rat blood at 0.5 mg/kg, po administered as single dose measured after 20 mins by ELISA method (reference value: 4.9+/-1.1 ng/mL). It counts as functional.
For data set [35], the system named is Rattus norvegicus. Description: Induction of growth hormone level in adult Sprague-Dawley rat blood at 0.5 mg/kg, po administered as single dose measured immediately by ELISA method (reference value: 12.6+/-4.4 ng/mL). It counts as functional.
For data set [36], the system named is Rattus norvegicus. Description: Induction of growth hormone level in Juvenile Sprague-Dawley rat blood by measuring AUC(0 to 40 mins) at 0.1 mg/kg, po administered as single dose by ELISA method (reference value: 20.2+/-4.3 ng/mL). It counts as functional, organism-based. As to conditions: time 4.0 hrs.
Data set [37] deals with Growth hormone secretagogue receptor type 1 (Rattus norvegicus, UniProt O08725). Description: Agonist activity at rat GHSR expressed in CHO cells incubated for 60 min by FLIPR assay. It is filed as functional, cell-based.
Data set [38] deals with Rattus norvegicus. The data set can be described thus: Induction of growth hormone level in Juvenile Sprague-Dawley rat blood at 0.1 mg/kg, po administered as single dose measured after 2 hrs by ELISA method (reference value: 26.5+/-7.3 ng/mL). It counts as functional.
Data set [39] can be described thus: Agonist activity at monkey GHSR expressed in CHO cells incubated for 60 min by FLIPR assay. As to conditions: Macaca mulatta, 1 h. It is filed as cell-based.
Data set [40] deals with Rattus norvegicus. The data set can be described thus: Induction of growth hormone level in adult Sprague-Dawley rat blood at 0.5 mg/kg, po administered as single dose measured after 10 mins by ELISA method (reference value: 13.7+/-7.2 ng/mL). It counts as functional.
A short description of data set [41]: Clearance in male Sprague-Dawley rat plasma at 1 mg/kg, iv administered as single dose measured after 4 hrs. It counts as ADME, organism-based.
The subject of data set [42] is CHO. The data set can be described thus: Agonist activity at dog GHSR expressed in CHO cells at maximum concentration incubated for 60 min by FLIPR assay relative to control. It counts as cell-based. The note with it: Canis lupus familiaris, filed as agonist.

Growth hormone secretagogue receptor type 1, sequence (O08725 whole entry): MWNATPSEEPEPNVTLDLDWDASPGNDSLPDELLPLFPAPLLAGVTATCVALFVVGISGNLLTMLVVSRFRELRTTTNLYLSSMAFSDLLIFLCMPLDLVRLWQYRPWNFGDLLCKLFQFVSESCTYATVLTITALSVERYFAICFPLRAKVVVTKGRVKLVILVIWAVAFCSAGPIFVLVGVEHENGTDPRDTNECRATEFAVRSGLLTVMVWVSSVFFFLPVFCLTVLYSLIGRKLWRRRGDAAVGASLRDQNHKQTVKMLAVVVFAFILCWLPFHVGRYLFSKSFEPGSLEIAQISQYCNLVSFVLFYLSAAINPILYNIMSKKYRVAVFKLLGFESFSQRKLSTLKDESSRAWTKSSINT
Growth hormone secretagogue receptor type 1 (Rattus norvegicus), sequence (O08725 whole entry): as above

As to `CC(C)(N)C(=O)N[C@H](COCc1ccccc1)C(=O)N1CCC2(CC1)CN(S(C)(=O)=O)c1ccccc12` [IBUTAMOREN], the Activity was determined as 76.2 ng/mL in the data set with Rattus norvegicus [1]; 76.3 ng/mL with Rattus norvegicus [2]; 52.4 ng/mL with Rattus norvegicus [4]; 61.3 ng/mL in the data set on Rattus norvegicus [5]; 290.9 ng/mL with Rattus norvegicus [6]; 25 ng/mL with Rattus norvegicus [7]. The Activity in the data set with Rattus norvegicus [8] worked out at 15.4 ng/mL; with Rattus norvegicus [9], 71.3 ng/mL; with Rattus norvegicus [10], 133.9 ng/mL; with Rattus norvegicus [11], 58.1 ng/mL; in the data set with Rattus norvegicus [12], 227.8 ng/mL. The AUC was 45.6 ng·h/mL in the data set on Rattus norvegicus [3] and 123 ng·h/mL in the data set with Rattus norvegicus [13].

As for `CC(C)(N)C(=O)N[C@H](COCc1ccccc1)C(=O)N1CCC2=NN(C3CC3)C(=O)[C@]2(Cc2ccccn2)C1`, the EC50 (in general, the concentration giving half of the maximal effect) in data set [14] is 800 pM; in [23] it was 92 pM; in data set [37] it was 21 pM; in data set [39], 68 pM. The Activity in the data set with Rattus norvegicus [15] is 220.5 ng/mL; in the data set on Rattus norvegicus [16], 54.5 ng/mL; in the data set on CHO [17], 123%; in the data set with Rattus norvegicus [18], 65.8 ng/mL; with CHO [20], 104%; with Rattus norvegicus [24], 91.8 ng/mL. Besides, the Activity turned out to be 41.9 ng/mL in the data set with Rattus norvegicus [27]; 61.1 ng/mL in the data set with Rattus norvegicus [28]; 114% in [32]; 168.5 ng/mL in the data set on Rattus norvegicus [33]; 81.8 ng/mL in the data set with Rattus norvegicus [34]; 17.2 ng/mL with Rattus norvegicus [35]. Besides, the Activity with Rattus norvegicus [38] was found to be 34.5 ng/mL; with Rattus norvegicus [40] it was 178.4 ng/mL; in the data set on CHO [42] it was 87.4%. Besides, in [19], the Vd (in general, a proportionality between amount in the body and measured concentration, not a real space) amounted to 3.3 L/kg. The Tmax – broadly, the time from dosing to the highest level – in [21] was found to be 15 min. Moreover, the AUC at 4 h in data set [22] amounted to 186 ng·h/mL. The bioavailability (in general, dose-corrected exposure relative to a reference, in per cent) in data set [25] was 26.2%. For the same compound, the half-life in [26] was 72.6 min; in [29], 48 min. The highest level in data set [30] (Cmax) was 139 ng/mL. The AUC was determined as 58.6 ng·h/mL with Rattus norvegicus [31] and 104 ng·h/mL with Rattus norvegicus [36]. In data set [41], the clearance (in general, the rate of elimination divided by the concentration) stood at 48 mL/min/kg.
